Results on 12 compounds are retold here after patent US20220144815A1, “1,3,4-OXADIAZOLES AND THEIR DERIVATIVES AS NEW ANTIFUNGAL AGENTS” (Bayer Aktiengesellschaft, priority 2018, published 2022).

A short description of data set [1]: Log P by HPLC on reversed phase columns, method [a] (EEC directive 79/831 Annex V.A8). Format: physicochemical. The settings on record: reversed phase HPLC column. In short, it runs like this: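 Reversed-phase HPLC with LC-UV detection per EEC directive 79/831 Annex V.A8, acidic eluent of 0.1% formic acid in water and acetonitrile, linear gradient 10% to 95% acetonitrile. Log P derived from retention times, calibrated against straight-chain alkan-2-ones (C3–C16) by linear interpolation.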

For data set [2], the system named is Colletotrichum lindemuthianum. Briefly: Example B: in vitro cell test, spore germination and mycelium growth in liquid culture. The settings on record: 144 h, 20 ppm of tested compound, 6 days incubation, read-out: efficacy (inhibition of fungal growth). Format: cell-based. In short, it runs like this: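 Compounds in DMSO (final ≤1%) added to glucose/peptone/yeast extract liquid medium containing C. lindemuthianum spores. After 6 days incubation, mycelium growth measured spectrometrically; inhibition calculated from absorbance versus compound-free control wells.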

The test system of another data set is Botrytis cinerea. Briefly: Example C: in vivo preventive test (grey mould) on gherkin or cabbage. The settings on record: 500 ppm of active ingredient, preventive spray, evaluated 4 to 5 days after inoculation, read-out: efficacy. Here is the method:
Solvent: 5% by volume of dimethyl sulfoxide • 10% by volume of acetone Emulsifier: 1 μl of Tween® 80 per mg of active ingredient The tested compounds were made soluble and homogenized in a mixture of dimethyl sulfoxide/acetone/Tween® 80 and then diluted in water to the desired concentration. The young plants of gherkin or cabbage were treated by spraying the tested compound prepared as described above. Control plants were treated only with an aqueous solution of acetone/dimethyl sulfoxide/Tween® 80. After 24 hours, the plants were contaminated by spraying the leaves with an aqueous suspension of Botrytis cinerea spores. The contaminated gherkin plants were incubated for 4 to 5 days at 17° C. and at 90% relative humidity. The contaminated cabbage plants were incubated for 4 to 5 days at 20° C. and at 100% relative humidity. The test was evaluated 4 to 5 days after the inoculation. 0% means an efficacy which corresponds to that of the control plants while an efficacy of 100% means that no disease was observed.

For another data set, the system named is Puccinia recondita. Briefly: Example D: in vivo preventive test (brown rust on wheat). Conditions: 264 h, 500 ppm of tested compound, preventive spray, evaluated 11 days after inoculation, read-out: efficacy. In short, it runs like this:
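Young wheat sprayed preventively with compound in DMSO/acetone/Tween 80 diluted in water, then inoculated with Puccinia recondita spores 24 hours later. Plants held 24 hours at 20 °C, 100% RH, then 10 days at 20 °C, 70-80% RH; efficacy scored 11 days post-inoculation, 0% matching untreated control, 100% no disease.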

The subject of a further data set is Phakopsora pachyrhizi. Briefly: Example F: in vivo preventive test (soybeans), DMSO/acetone/Tween 80. Conditions: 288 h, 500 ppm of tested compound, preventive spray, soybean, evaluated 12 days after inoculation, read-out: efficacy. In short, it runs like this:
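Compounds in DMSO/acetone/Tween 80, diluted in water, were sprayed preventively onto young plants, which were spore-inoculated 24 h later. Plants were held 24 h at 24 °C and 100% RH, then 11 days at 24 °C and 70–80% RH. Scored 12 days post-inoculation: 0% = control-level disease, 100% = no disease.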

For another data set, the system named is Alternaria brassicae. Briefly: Example E: in vivo preventive test (cabbage). Conditions: 144 h, 500 ppm of tested compound, preventive spray, evaluated 6 days after inoculation, read-out: efficacy. In short, it runs like this: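 Young cabbage plants sprayed with compound in DMSO/acetone/Tween 80 diluted in water, then inoculated 24 hours later with Alternaria brassicae spore suspension. Kept 6 days at 20° C., 100% relative humidity. Efficacy scored 6 days post-inoculation: 0% as solvent-treated controls, 100% no disease.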

The test system of another data set is Phakosporra pachirrhizi. Briefly: Example A: fungicidal activity, spore germination in 96-well plates. In kind it is cell-based. The settings on record: 4 hours at 21° C., read-out: efficacy (inhibition of the fungal germination); for inhibition at 30 ppm: 30 ppm of active ingredient; for inhibition at 20 ppm: 20 ppm of active ingredient. Here is the method: Cryo-conserved wild-type spores of the biotroph Phakosporra pachirrhizi were humidified in dedicated chamber overnight at 18° C. in the dark. The next day, a solution of spores at 7×10^3 sp/mL was prepared in a water based growth medium (H2O+0.2 mM MOPS at pH 7+0.01% Tween 20) and spores were distributed in a 96-MTPS (final volume of 200 μL per well) thanks to a dispenser robot. Each molecule was tested at 10 doses (from 30 to 0.002 ppm final concentration) and accordingly 1.2 μL of each dilution was transferred in dedicated well to end-up with a final concentration of 0.6% DMSO. Wild-type spores and molecules were incubated for 4 hours at 21° C., and 6 images par well were then acquired with Transmitted Light images (Image Xpress Micro microscope, Molecular Devices, Objective 10×, 6 images per well). Detection and quantification of the number of germinated spores per image was performed with a dedicated in-house developed algorithm (MetaXpress software, Molecular Devices).

[3] abbreviates: method [a], HPLC on reversed phase columns, read-out: logP.
Where [4] appears, read: Method A: LC-UV, acidic range, 0.1% formic acid in water and acetonitrile, read-out: Log P.
[5] abbreviates: log P determined according to method [a] (HPLC on reversed phase columns), read-out: logP.

Like-named read-outs stand apart in the source and are kept apart here.

The term inhibition of growth denotes how much of the control response was suppressed. Take `Fc1ccc(C(Nc2ncc(-c3nnc(C(F)F)o3)cn2)C(F)(F)F)cc1` (racemic) [I.181, 5-[5-(difluoromethyl)-1,3,4-oxadiazol-2-yl]-N-[(1RS)-2,2,2-trifluoro-1-(4-fluorophenyl)ethyl]pyrimidin-2-amine]: the chromatographic logP in data set [1] (setting [3]) amounted to 3.22. In addition, the inhibition of growth at 20 µg/mL in data set [2] fell in the range of 80 to 89%. Moreover, the pest or weed control at 500 ppm with Botrytis cinerea was 70 to 79%. The pest or weed control at 500 µg/mL with Puccinia recondita and with Phakopsora pachyrhizi was 90 to 100% throughout.
In the case of `FC(F)c1nnc(-c2cnc(N[C@@H]3C[C@H]3c3ccccc3)nc2)o1` (racemic) [I.196, 5-[5-(difluoromethyl)-1,3,4-oxadiazol-2-yl]-N-[rac-(1R,2S)-2-phenylcyclopropyl]pyrimidin-2-amine], in data set [1] (setting [3]), the chromatographic logP was determined as 2.94. For the same compound, the inhibition of growth at 20 µg/mL in data set [2] fell in the range of 70 to 79%. Besides, the pest or weed control at 500 ppm in the data set on Botrytis cinerea fell in the range of 90 to 100%. For the same compound, the pest or weed control at 500 µg/mL with Alternaria brassicae and with Phakopsora pachyrhizi was 90 to 100% each time.
Broadly, the inhibition is the relative decrease from the control value, in per cent. Consider `O=C(O)c1ccc(-c2nnc(C(F)(F)F)o2)cc1` [I.004, 4-[5-(trifluoromethyl)-1,3,4-oxadiazol-2-yl]benzoic acid], for which the inhibition at 30 ppm with Phakosporra pachirrhizi was not below 70%.
In the case of `O=C(O)c1ccc(-c2nnc(C(F)(F)F)s2)cc1` [I.008, 4-[5-(trifluoromethyl)-1,3,4-thiadiazol-2-yl]benzoic acid], the chromatographic logP in data set [1] (setting [4]) is 1.41. Moreover, the inhibition at 20 ppm with Phakosporra pachirrhizi was not below 70%.
As for `CCc1noc(-c2ccc(-c3nnc(C(F)(F)F)o3)cc2)n1` [I.018, 3-ethyl-5-{4-[5-(trifluoromethyl)-1,3,4-oxadiazol-2-yl]phenyl}-1,2,4-oxadiazole], the chromatographic logP in data set [1] (setting [4]) worked out at 3.59. The inhibition at 30 ppm in the data set on Phakosporra pachirrhizi was not below 70%.
`O=C(Nc1ccc(F)cc1F)c1ccc(-c2nnc(C(F)F)o2)cc1` [I.027, 4-[5-(difluoromethyl)-1,3,4-oxadiazol-2-yl]-N-(2,4-difluorophenyl)benzamide]: the inhibition at 4 ppm in the data set with Phakosporra pachirrhizi (4 ppm of active ingredient) is not below 70%.
As for `FC(F)c1nnc(-c2cnc(NC3(c4ccccc4)CCC3)nc2)o1` [I.134, 5-[5-(difluoromethyl)-1,3,4-oxadiazol-2-yl]-N-(1-phenylcyclobutyl)pyrimidin-2-amine], the chromatographic logP in data set [1] (setting [4]) came to 3.18. For the same compound, the inhibition at 20 ppm in the data set on Phakosporra pachirrhizi was not below 70%. Moreover, in data set [2], the inhibition of growth at 20 µg/mL was 90 to 100%. In addition, the pest or weed control at 500 µg/mL with Puccinia recondita is 70 to 79%; with Phakopsora pachyrhizi it was 90 to 100%.
Consider `FC(F)c1nnc(-c2cnc(NCC3(c4ccccc4)CC3)nc2)o1` [I.135, 5-[5-(difluoromethyl)-1,3,4-oxadiazol-2-yl]-N-[(1-phenylcyclopropyl)methyl]pyrimidin-2-amine], for which the chromatographic logP in data set [1] (setting [5]) stood at 3.25. Besides, the inhibition of growth at 20 µg/mL in data set [2] was 80 to 89%. Moreover, the pest or weed control at 500 ppm in the data set with Botrytis cinerea was 70 to 79%. Besides, the pest or weed control at 500 µg/mL in the data set on Alternaria brassicae is 90 to 100%.
Turning to `Fc1ccccc1C1(Nc2ncc(-c3nnc(C(F)F)o3)cn2)CC1` [I.144, 5-[5-(difluoromethyl)-1,3,4-oxadiazol-2-yl]-N-[1-(2-fluorophenyl)cyclopropyl]pyrimidin-2-amine], the chromatographic logP in data set [1] (setting [5]) was 2.85. Also, the inhibition at 20 ppm in the data set on Phakosporra pachirrhizi was not below 70%. For the same compound, in data set [2], the inhibition of growth at 20 µg/mL lay in the range of 90 to 100%. Also, the pest or weed control at 500 µg/mL with Puccinia recondita and with Phakopsora pachyrhizi was 90 to 100% each time.
Consider `Fc1ccc(C2(Nc3ncc(-c4nnc(C(F)F)o4)cn3)CC2)cc1` [I.146, 5-[5-(difluoromethyl)-1,3,4-oxadiazol-2-yl]-N-[1-(4-fluorophenyl)cyclopropyl]pyrimidin-2-amine], for which the chromatographic logP in data set [1] (setting [5]) worked out at 2.75. Also, the inhibition of growth at 20 µg/mL in data set [2] lay within 70 to 79%. Further, in the data set with Botrytis cinerea, the pest or weed control at 500 ppm was in the range of 90 to 100%. Moreover, the pest or weed control at 500 µg/mL in the data set on Puccinia recondita, in the data set with Alternaria brassicae and in the data set on Phakopsora pachyrhizi was 90 to 100% in each case.
In the case of `FC(F)(F)c1nnc(-c2cnc(NC3(c4ccccc4)CCC3)nc2)o1` [I.160, N-(1-phenylcyclobutyl)-5-[5-(trifluoromethyl)-1,3,4-oxadiazol-2-yl]pyrimidin-2-amine], the chromatographic logP in data set [1] (setting [5]) was determined as 3.84. Also, the inhibition at 20 ppm in the data set on Phakosporra pachirrhizi is not below 70%. The inhibition of growth at 20 µg/mL in data set [2] fell in the range of 80 to 89%. Moreover, in the data set on Phakopsora pachyrhizi, the pest or weed control at 500 µg/mL was in the range of 90 to 100%.
In the case of `FC(F)c1nnc(-c2cnc(NC3(C4(c5ccccc5)CC4)CC3)nc2)o1` [I.170, 5-[5-(difluoromethyl)-1,3,4-oxadiazol-2-yl]-N-[1′-phenyl[1,1′-bi(cyclopropyl)]-1-yl]pyrimidin-2-amine], in data set [1] (setting [3]), the chromatographic logP was 3.64. Further, the pest or weed control at 500 ppm in the data set on Botrytis cinerea was 70 to 79%. Moreover, in the data set with Alternaria brassicae, the pest or weed control at 500 µg/mL was in the range of 90 to 100%.
